Measured values from patent US12595230B2, “Substituted 6,7-dihydro-5H-benzo[7]annulene compounds and their derivatives, processes for their preparation and therapeutic uses thereof” (Sanofi, priority 2020, dated 2026).

Molecular target: T1, ERα (Homo sapiens, UniProt P03372)
T1 construct: host or cells: MCF7
T1 sequence (P03372 1-595): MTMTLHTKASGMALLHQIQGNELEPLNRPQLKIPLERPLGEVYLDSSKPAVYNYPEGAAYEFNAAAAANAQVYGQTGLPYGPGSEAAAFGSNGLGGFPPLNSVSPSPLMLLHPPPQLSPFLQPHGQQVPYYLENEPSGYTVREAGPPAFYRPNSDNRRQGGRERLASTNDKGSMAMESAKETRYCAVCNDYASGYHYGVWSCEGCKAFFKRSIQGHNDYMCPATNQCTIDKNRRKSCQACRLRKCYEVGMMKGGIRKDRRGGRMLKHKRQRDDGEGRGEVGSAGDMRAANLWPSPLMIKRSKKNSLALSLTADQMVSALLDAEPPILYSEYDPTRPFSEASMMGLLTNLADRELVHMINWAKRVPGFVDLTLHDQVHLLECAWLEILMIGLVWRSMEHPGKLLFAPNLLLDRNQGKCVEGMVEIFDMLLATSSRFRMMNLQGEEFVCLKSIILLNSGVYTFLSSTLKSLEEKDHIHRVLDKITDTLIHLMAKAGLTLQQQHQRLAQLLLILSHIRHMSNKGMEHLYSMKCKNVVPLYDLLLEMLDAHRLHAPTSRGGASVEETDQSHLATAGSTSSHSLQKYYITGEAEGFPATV
Test: Estrogen receptor degradation activity: breast cancer cell ERα in cell western assay (MCF7 cells)
Format: cell-based
Conditions: for % Degradation At 0.3 μM: 4 hours, relative to fulvestrant 0.1 μM positive control; for DC50: read-out: Degradation IC50
Summary of the method: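 Compounds were applied to MCF7 cells in stripped-serum, phenol red-free medium for 4 h at final 0.3–0.0000018 μM, with fulvestrant (0.1 μM) as control. Value: IC50 (nM) for 50% ERα degradation.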

[1] = 4 hours post compound addition, concentration which degrades 50% of the estrogen receptor

SMILES	% Degradation At 0.3 μM [%]	IC50 [1] [nM]	DC50 [1] [nM]
O=C(O)c1ccc2c(c1)CCCC(c1cccc(F)c1C(F)(F)F)=C2c1ccc(CC2CN(CCCF)C2)cc1 [Example 232, 8-(3-fluoro-2-(trifluoromethyl)phenyl)-9-(4-((1-(3-fluoropropyl)azetidin-3-yl)methyl)phenyl)-6,7-dihydro-5H-benzo[7]annulene-3-carboxylic acid]	88	0.1	–
O=C(O)c1ccc2c(c1)CCCC(c1ccc(Cl)cc1Cl)=C2c1ccc(CC2(O)CN(CCCF)C2)cc1 [Example 233, 8-(2,4-dichlorophenyl)-9-(4-((1-(3-fluoropropyl)-3-hydroxyazetidin-3-yl)methyl)phenyl)-6,7-dihydro-5H-benzo[7]annulene-3-carboxylic acid]	85	–	0.5
O=C(O)c1ccc2c(c1)CCCC(c1ncc(Cl)cc1Cl)=C2c1ccc(CC2CN(CCCF)C2)cc1 [Example 234, 8-(3,5-dichloropyridin-2-yl)-9-(4-((1-(3-fluoropropyl)azetidin-3-yl)methyl)phenyl)-6,7-dihydro-5H-benzo[7]annulene-3-carboxylic acid]	84	–	1.3
O=C(O)c1ccc2c(c1)CCCC(c1ccc(Cl)cc1C(F)(F)F)=C2c1ccc(CC2(F)CN(CCCF)C2)cc1 [Example 237, 8-(4-chloro-2-(trifluoromethyl)phenyl)-9-(4-((3-fluoro-1-(3-fluoropropyl)azetidin-3-yl)methyl)phenyl)-6,7-dihydro-5H-benzo[7]annulene-3-carboxylic acid]	88	–	5.8
O=C(O)c1ccc2c(c1)CCCC(c1ccccc1C(F)(F)F)=C2c1ccc(CC2(F)CN(CCCF)C2)cc1 [Example 238, 9-(4-((3-fluoro-1-(3-fluoropropyl)azetidin-3-yl)methyl)phenyl)-8-(2-(trifluoromethyl)phenyl)-6,7-dihydro-5H-benzo[7]annulene-3-carboxylic acid]	81	–	1.2
O=C(O)c1ccc2c(c1)CCCC(c1ccc(Cl)cc1Cl)=C2c1ccc(CC2CN(CCCF)C2)c(F)c1 [Example 239, 8-(2,4-dichlorophenyl)-9-(3-fluoro-4-((1-(3-fluoropropyl)azetidin-3-yl)methyl)phenyl)-6,7-dihydro-5H-benzo[7]annulene-3-carboxylic acid]	93	–	0.4
Cc1cc(CC2CN(CCCF)C2)ccc1C1=C(c2ccc(Cl)cc2Cl)CCCc2cc(C(=O)O)ccc21 [Example 240, 8-(2,4-dichlorophenyl)-9-(4-((1-(3-fluoropropyl)azetidin-3-yl)methyl)-2-methylphenyl)-6,7-dihydro-5H-benzo[7]annulene-3-carboxylic acid]	85	–	0.5
O=C(O)c1ccc2c(c1)CCCC(c1ccc(F)cc1C(F)(F)F)=C2c1ccc(CC2(F)CN(CCCF)C2)cc1 [Example 241, 9-(4-((3-fluoro-1-(3-fluoropropyl)azetidin-3-yl)methyl)phenyl)-8-(4-fluoro-2-(trifluoromethyl)phenyl)-6,7-dihydro-5H-benzo[7]annulene-3-carboxylic acid]	92	–	3.7
O=C(O)c1ccc2c(c1)CCCC(c1ccc(F)cc1Cl)=C2c1ccc(CC2(F)CN(CCCF)C2)cc1 [Example 242, 8-(2-chloro-4-fluorophenyl)-9-(4-((3-fluoro-1-(3-fluoropropyl)azetidin-3-yl)methyl)phenyl)-6,7-dihydro-5H-benzo[7]annulene-3-carboxylic acid]	78	–	1.7
N#Cc1cc2c(cc1C(=O)O)CCCC(c1ccc(Cl)cc1Cl)=C2c1ccc(CC2CN(CCCF)C2)cc1 [Example 245, 2-cyano-8-(2,4-dichlorophenyl)-9-(4-((1-(3-fluoropropyl)azetidin-3-yl)methyl)phenyl)-6,7-dihydro-5H-benzo[7]annulene-3-carboxylic acid]	100	–	269
N#Cc1c(C(=O)O)ccc2c1CCCC(c1ccc(Cl)cc1Cl)=C2c1ccc(CC2CN(CCCF)C2)cc1.O=CO [Example 246, 4-cyano-8-(2,4-dichlorophenyl)-9-(4-((1-(3-fluoropropyl)azetidin-3-yl)methyl)phenyl)-6,7-dihydro-5H-benzo[7]annulene-3-carboxylic acid, formic acid]	73	–	31.6
O=C(O)c1ccc2c(c1Cl)CCCC(c1ccc(Cl)cc1Cl)=C2c1ccc(CC2CN(CCCF)C2)cc1 [Example 247, 4-chloro-8-(2,4-dichlorophenyl)-9-(4-((1-(3-fluoropropyl)azetidin-3-yl)methyl)phenyl)-6,7-dihydro-5H-benzo[7]annulene-3-carboxylic acid]	97	–	1.8
O=C(O)c1cc2c(cc1Cl)C(c1ccc(CC3CN(CCCF)C3)cc1)=C(c1ccc(Cl)cc1Cl)CCC2 [Example 248, 2-chloro-8-(2,4-dichlorophenyl)-9-(4-((1-(3-fluoropropyl)azetidin-3-yl)methyl)phenyl)-6,7-dihydro-5H-benzo[7]annulene-3-carboxylic acid]	90	–	2.2
Cc1cc2c(cc1C(=O)O)CCCC(c1ccc(Cl)cc1Cl)=C2c1ccc(CC2CN(CCCF)C2)cc1 [Example 249, 8-(2,4-dichlorophenyl)-9-(4-((1-(3-fluoropropyl)azetidin-3-yl)methyl)phenyl)-2-methyl-6,7-dihydro-5H-benzo[7]annulene-3-carboxylic acid]	90	–	0.4
Cc1c(C(=O)O)ccc2c1CCCC(c1ccc(Cl)cc1Cl)=C2c1ccc(CC2CN(CCCF)C2)cc1.Cl [Example 250, 8-(2,4-dichlorophenyl)-9-(4-((1-(3-fluoropropyl)azetidin-3-yl)methyl)phenyl)-4-methyl-6,7-dihydro-5H-benzo[7]annulene-3-carboxylic acid hydrochloride]	90	–	0.6
O=C([O-])c1ccc2c(c1)CCCC(c1cc(F)cc(C(F)F)c1)=C2c1ccc(CC2CN(CCCF)C2)cc1.[Na+] [Example 251, sodium 8-(3-(difluoromethyl)-5-fluorophenyl)-9-(4-((1-(3-fluoropropyl)azetidin-3-yl)methyl)phenyl)-6,7-dihydro-5H-benzo[7]annulene-3-carboxylate]	87	–	0.7
O=C(O)c1ccc2c(c1)CCCC(c1ccccc1Cl)=C2c1ccc(CC2CN(CCCF)C2)cn1 [Example 252, 8-(2-chlorophenyl)-9-(5-((1-(3-fluoropropyl)azetidin-3-yl)methyl)pyridin-2-yl)-6,7-dihydro-5H-benzo[7]annulene-3-carboxylic Acid]	67	–	48.6
O=C(O)c1ccc2c(c1)CCCC(c1ccc(Cl)cc1Cl)=C2c1ccc(CC2CN(CCCF)C2)cn1 [Example 253, 8-(2,4-dichlorophenyl)-9-(5-((1-(3-fluoropropyl)azetidin-3-yl)methyl)pyridin-2-yl)-6,7-dihydro-5H-benzo[7]annulene-3-carboxylic Acid]	89	–	4
Oc1ccc2c(c1)CCCC(c1ccc(Cl)cc1Cl)=C2c1ccc(CC2CN(CCCF)C2)cc1 [Example 254, 8-(2,4-dichlorophenyl)-9-(4-((1-(3-fluoropropyl)azetidin-3-yl)methyl)phenyl)-6,7-dihydro-5H-benzo[7]annulen-3-ol]	85	–	1.4
Cc1c(C2=C(c3ccc(CC4CN(CCC(F)(F)F)C4)cc3)c3ccc(C(=O)O)cc3CCC2)cccc1C(F)(F)F [Example 256, 8-(2-methyl-3-(trifluoromethyl)phenyl)-9-(4-((1-(3,3,3-trifluoropropyl)azetidin-3-yl)methyl)phenyl)-6,7-dihydro-5H-benzo[7]annulene-3-carboxylic acid]	82	–	1
O=C(O)c1ccc2c(c1)CCCC(c1cccc(C(F)(F)F)c1Cl)=C2c1ccc(CC2CN(CCC(F)(F)F)C2)cc1 [Example 257, 8-(2-chloro-3-(trifluoromethyl)phenyl)-9-(4-((1-(3,3,3-trifluoropropyl)azetidin-3-yl)methyl)phenyl)-6,7-dihydro-5H-benzo[7]annulene-3-carboxylic acid]	83	–	0.7
O=C(O)c1ccc2c(c1)CCCC(c1ccc(F)cc1C(F)(F)F)=C2c1ccc(CC2CN(CCC(F)(F)F)C2)cc1 [Example 258, 8-(4-fluoro-2-(trifluoromethyl)phenyl)-9-(4-((1-(3,3,3-trifluoropropyl)azetidin-3-yl)methyl)phenyl)-6,7-dihydro-5H-benzo[7]annulene-3-carboxylic acid]	87	–	0.8
O=C(O)c1ccc2c(c1)CCCC(c1cccc(Cl)c1C(F)(F)F)=C2c1ccc(CC2CN(CCC(F)(F)F)C2)cc1 [Example 259, 8-(3-chloro-2-(trifluoromethyl)phenyl)-9-(4-((1-(3,3,3-trifluoropropyl)azetidin-3-yl)methyl)phenyl)-6,7-dihydro-5H-benzo[7]annulene-3-carboxylic acid]	87	–	0.4
